Source: PMC5218480 (PLoS ONE, 2017)

Test system: MV-4-11 cells
Assay: Gene expression microarray analysis (Affymetrix PrimeView) and GSEA
Type: cell-based, human
Design: RFU PODN (11730768_x_at) / Fold change /veh PODN (11730768_x_at) / RFU LINC00158 (11744669_a_at) / Fold change /veh LINC00158 (11744669_a_at) / RFU DUSP10 (11751237_a_at) / Fold change /veh DUSP10 (11751237_a_at) / RFU ID3 (11757404_x_at) / Fold change /veh ID3 (11757404_x_at) / RFU PLEKHG5 (11737974_s_at) / Fold change /veh PLEKHG5 (11737974_s_at) / RFU LRRC4B (11730491_at) / Fold change /veh LRRC4B (11730491_at) / RFU GIMAP4 (11747438_a_at) / Fold change /veh GIMAP4 (11747438_a_at) / RFU KRT8 (11758183_x_at) / Fold change /veh KRT8 (11758183_x_at) / RFU CNN1 (11734310_a_at) / Fold change /veh CNN1 (11734310_a_at) / RFU VPS37D (11726825_at) / Fold change /veh VPS37D (11726825_at) / RFU C10orf10 (11716522_x_at) / Fold change /veh C10orf10 (11716522_x_at) / RFU KIR2DL2 /// KIR2DL4 /// KIR2DL5A /// KIR2DL5B /// KIR2DS1 /// KIR2DS2 /// KIR2DS3 /// KIR2DS4 /// KIR3DL3 /// KIR3DL3 /// KIR3DS1 (11738374_at) / Fold change /veh KIR2DL2 /// KIR2DL4 /// KIR2DL5A /// KIR2DL5B /// KIR2DS1 /// KIR2DS2 /// KIR2DS3 /// KIR2DS4 /// KIR3DL3 /// KIR3DL3 /// KIR3DS1 (11738374_at) / RFU C1QL1 (11718748_at) / Fold change /veh C1QL1 (11718748_at) / RFU TMPRSS4 (11747572_a_at) / Fold change /veh TMPRSS4 (11747572_a_at) / RFU HAMP (11756126_x_at) / Fold change /veh HAMP (11756126_x_at) / RFU RNFT2 (11725882_a_at) / Fold change /veh RNFT2 (11725882_a_at) / RFU NR4A2 (11747474_a_at) / Fold change /veh NR4A2 (11747474_a_at) / RFU ABCC12 (11746883_a_at) / Fold change /veh ABCC12 (11746883_a_at) / RFU TMEM136 (11760407_x_at) / Fold change /veh TMEM136 (11760407_x_at) / RFU CLDN22 /// WWC2 (11732394_at) / Fold change /veh CLDN22 /// WWC2 (11732394_at) / RFU HLA-DPB1 (11760878_x_at) / Fold change /veh HLA-DPB1 (11760878_x_at) / RFU SPINT1 (11716480_a_at) / Fold change /veh SPINT1 (11716480_a_at) / RFU GAP43 (11754022_s_at) / Fold change /veh GAP43 (11754022_s_at) / RFU A4GNT (11735810_at) / Fold change /veh A4GNT (11735810_at) / RFU PRB3 (11715151_x_at) / Fold change /veh PRB3 (11715151_x_at) / RFU TUBB4B (11761932_at) / Fold change /veh TUBB4B (11761932_at) / RFU CAPN14 (11732068_a_at) / Fold change /veh CAPN14 (11732068_a_at) / RFU TMCC2 (11721928_a_at) / Fold change /veh TMCC2 (11721928_a_at) / RFU IRGQ (11745062_a_at) / Fold change /veh IRGQ (11745062_a_at) / RFU FAM174B (11720279_a_at) / Fold change /veh FAM174B (11720279_a_at) / RFU TMPRSS4 (11748680_a_at) / Fold change /veh TMPRSS4 (11748680_a_at) / RFU FAM212B (11763350_a_at) / Fold change /veh FAM212B (11763350_a_at) / RFU PLEKHG5 (11743358_a_at) / Fold change /veh PLEKHG5 (11743358_a_at) / RFU ZSCAN30 (11745921_a_at) / Fold change /veh ZSCAN30 (11745921_a_at) / RFU CMKLR1 (11741424_a_at) / Fold change /veh CMKLR1 (11741424_a_at) / RFU LOC101060620 /// MAPK8IP1 (11723275_at) / Fold change /veh LOC101060620 /// MAPK8IP1 (11723275_at) / RFU SPTSSB (11747773_x_at) / Fold change /veh SPTSSB (11747773_x_at) / RFU PRSS12 (11739890_at) / Fold change /veh PRSS12 (11739890_at) / RFU BIN1 (11741810_x_at) / Fold change /veh BIN1 (11741810_x_at) / RFU WNT11 (11732464_a_at) / Fold change /veh WNT11 (11732464_a_at) / RFU C10orf10 (11716521_a_at) / Fold change /veh C10orf10 (11716521_a_at) / RFU C5orf56 (11738089_at) / Fold change /veh C5orf56 (11738089_at) / RFU CYB561 (11721691_x_at) / Fold change /veh CYB561 (11721691_x_at) / RFU ANKRD19P (11752326_a_at) / Fold change /veh ANKRD19P (11752326_a_at) / RFU OR2T12 /// OR2T33 /// OR2T8 (11738714_s_at) / Fold change /veh OR2T12 /// OR2T33 /// OR2T8 (11738714_s_at) / RFU VCAN (11748164_a_at) / Fold change /veh VCAN (11748164_a_at) / RFU JSRP1 (11732532_at) / Fold change /veh JSRP1 (11732532_at) / RFU KRTAP10-11 (11738290_x_at) / Fold change /veh KRTAP10-11 (11738290_x_at) / RFU MYO3A (11730013_a_at) / Fold change /veh MYO3A (11730013_a_at) / RFU EBF3 (11725865_a_at) / Fold change /veh EBF3 (11725865_a_at) / RFU CAMK2N1 (11719241_x_at) / Fold change /veh CAMK2N1 (11719241_x_at) / RFU C5orf56 (11738088_a_at) / Fold change /veh C5orf56 (11738088_a_at) / RFU OLFML3 (11715873_a_at) / Fold change /veh OLFML3 (11715873_a_at) / RFU LOC100653217 /// NTM (11731650_a_at) / Fold change /veh LOC100653217 /// NTM (11731650_a_at) / RFU MAPK11 (11762145_a_at) / Fold change /veh MAPK11 (11762145_a_at) / RFU FIZ1 (11724087_x_at) / Fold change /veh FIZ1 (11724087_x_at) / RFU OASL (11726364_x_at) / Fold change /veh OASL (11726364_x_at) / RFU SOX15 (11748057_x_at) / Fold change /veh SOX15 (11748057_x_at) / RFU CD79A (11719716_a_at) / Fold change /veh CD79A (11719716_a_at) / RFU HIST1H1D (11736915_at) / Fold change /veh HIST1H1D (11736915_at) / RFU CASKIN2 (11723855_a_at) / Fold change /veh CASKIN2 (11723855_a_at) / RFU LOC730098 (11760151_x_at) / Fold change /veh LOC730098 (11760151_x_at) / RFU OR4N2 (11742367_at) / Fold change /veh OR4N2 (11742367_at) / RFU PRRT2 (11749266_a_at) / Fold change /veh PRRT2 (11749266_a_at) / RFU SNX32 (11753110_a_at) / Fold change /veh SNX32 (11753110_a_at) / RFU CDHR5 (11726645_a_at) / Fold change /veh CDHR5 (11726645_a_at) / RFU RCAN1 (11760418_a_at) / Fold change /veh RCAN1 (11760418_a_at) / RFU FAM167A (11723789_a_at) / Fold change /veh FAM167A (11723789_a_at) / RFU FAM26E (11764081_at) / Fold change /veh FAM26E (11764081_at) / RFU ISYNA1 (11749810_s_at) / Fold change /veh ISYNA1 (11749810_s_at) / RFU ACY1 (11761880_at) / Fold change /veh ACY1 (11761880_at) / RFU 11764098_at / Fold change /veh 11764098_at / RFU SAMD14 (11745864_x_at) / Fold change /veh SAMD14 (11745864_x_at) / RFU NPB (11741838_a_at) / Fold change /veh NPB (11741838_a_at) / RFU TMPRSS6 (11731388_a_at) / Fold change /veh TMPRSS6 (11731388_a_at) / RFU KRTAP10-2 (11738614_at) / Fold change /veh KRTAP10-2 (11738614_at) / RFU ARHGAP8 /// PRR5-ARHGAP8 (11727945_x_at) / Fold change /veh ARHGAP8 /// PRR5-ARHGAP8 (11727945_x_at) / RFU KRTAP5-7 /// NADSYN1 (11734609_at) / Fold change /veh KRTAP5-7 /// NADSYN1 (11734609_at) / RFU RASL12 (11751679_a_at) / Fold change /veh RASL12 (11751679_a_at) / RFU CDKN2B (11736163_a_at) / Fold change /veh CDKN2B (11736163_a_at) / RFU PRF1 (11729649_at) / Fold change /veh PRF1 (11729649_at) / RFU, ZNF638 /// ZNF638-IT1 / Fold change vs veh, ZNF638 /// ZNF638-IT1 / RFU, PANK3 / Fold change vs veh, PANK3 / RFU, SH3YL1 / Fold change vs veh, SH3YL1 / RFU, ZEB2 / Fold change vs veh, ZEB2 / RFU, NRIP1 / Fold change vs veh, NRIP1 / RFU, PTTG1IP / Fold change vs veh, PTTG1IP / RFU, CAPN2 / Fold change vs veh, CAPN2 / RFU, MED14 / Fold change vs veh, MED14 / RFU, SNORA58 / Fold change vs veh, SNORA58 / RFU, C1orf63 / Fold change vs veh, C1orf63 / RFU, LRRFIP1 / Fold change vs veh, LRRFIP1 / RFU, NDUFAF7 / Fold change vs veh, NDUFAF7 / RFU, SLC12A2 / Fold change vs veh, SLC12A2 / RFU, IBTK / Fold change vs veh, IBTK / RFU, ESF1 / Fold change vs veh, ESF1 / Fold change vs veh, TMEM50B / RFU, TAOK1 / Fold change vs veh, TAOK1 / RFU, ACBD3 / Fold change vs veh, ACBD3 / RFU, TMA16 / Fold change vs veh, TMA16 / RFU, RWDD3 / Fold change vs veh, RWDD3 / RFU, BCAT1 / Fold change vs veh, BCAT1 / RFU, EDEM3 / Fold change vs veh, EDEM3 / RFU, TMEM33 / Fold change vs veh, TMEM33 / RFU, WDR75 / Fold change vs veh, WDR75 / RFU, AHCTF1 / Fold change vs veh, AHCTF1 / RFU, TFRC / Fold change vs veh, TFRC / RFU, ZDHHC17 / Fold change vs veh, ZDHHC17 / RFU, NOM1 / Fold change vs veh, NOM1 / RFU, ARL8B / Fold change vs veh, ARL8B / RFU, ZBTB11 / Fold change vs veh, ZBTB11 / RFU, TAMM41 / Fold change vs veh, TAMM41 / RFU, KIAA1704 /// LOC100996395 / Fold change vs veh, KIAA1704 /// LOC100996395 / RFU, ING1 / Fold change vs veh, ING1 / RFU, TRMT61B / Fold change vs veh, TRMT61B / RFU, FUBP3 / Fold change vs veh, FUBP3 / RFU, TP53 / Fold change vs veh, TP53 / RFU, TNKS2 / Fold change vs veh, TNKS2 / RFU, ZFP14 / Fold change vs veh, ZFP14 / RFU, ACTR2 / Fold change vs veh, ACTR2 / RFU, PPP3R1 / Fold change vs veh, PPP3R1 / RFU, PIK3R1 / Fold change vs veh, PIK3R1 / RFU, HNRNPA1 / Fold change vs veh, HNRNPA1 / RFU, RNF170 / Fold change vs veh, RNF170 / RFU, ZNF28 / Fold change vs veh, ZNF28 / RFU, RNGTT / Fold change vs veh, RNGTT / RFU, OGT / Fold change vs veh, OGT / RFU, BRD1 / Fold change vs veh, BRD1 / RFU, MARS / Fold change vs veh, MARS / RFU, ZNF655 / Fold change vs veh, ZNF655 / RFU, FAHD1 / Fold change vs veh, FAHD1 / RFU, BDP1 / Fold change vs veh, BDP1 / RFU, LRRCC1 / Fold change vs veh, LRRCC1 / RFU, ARID1A / Fold change vs veh, ARID1A / RFU, ZNF146 / Fold change vs veh, ZNF146 / RFU, ZNF330 / Fold change vs veh, ZNF330 / RFU, GPN3 / Fold change vs veh, GPN3 / RFU, C9orf123 / Fold change vs veh, C9orf123 / RFU, N4BP2L2 / Fold change vs veh, N4BP2L2 / RFU, ARFIP1 / Fold change vs veh, ARFIP1 / RFU, FAM179B / Fold change vs veh, FAM179B / RFU, BCL10 / Fold change vs veh, BCL10 / RFU, UHRF1BP1L / Fold change vs veh, UHRF1BP1L / RFU, BET1 / Fold change vs veh, BET1 / RFU, CNOT2 / Fold change vs veh, CNOT2 / RFU, ZNF268 / Fold change vs veh, ZNF268 / Fold change vs veh, ZNF507 / RFU, DGCR2 / Fold change vs veh, DGCR2 / RFU, WDSUB1 / Fold change vs veh, WDSUB1 / Fold change vs veh, HSP90B1 /// MIR3652 / RFU, ADSS / Fold change vs veh, ADSS / RFU, GK / Fold change vs veh, GK / RFU, ZNF148 / Fold change vs veh, ZNF148 / RFU, TAF9 / Fold change vs veh, TAF9 / RFU, SLC1A5 / Fold change vs veh, SLC1A5 / RFU, SLMO2 / Fold change vs veh, SLMO2 / RFU, ABCC4 / Fold change vs veh, ABCC4 / RFU, LOC101060439 /// RAP1B / Fold change vs veh, LOC101060439 /// RAP1B / RFU, RFX7 / Fold change vs veh, RFX7 / RFU, GTPBP10 / Fold change vs veh, GTPBP10 / RFU, CNEP1R1 / Fold change vs veh, CNEP1R1 / RFU, BIVM-ERCC5 /// ERCC5 / Fold change vs veh, BIVM-ERCC5 /// ERCC5 / RFU, ILF3 / Fold change vs veh, ILF3 / RFU 11762660_at / Fold change /veh 11762660_at / RFU VCAN (11757783_s_at) / Fold change /veh VCAN (11757783_s_at) / RFU DDX43 (11728927_at) / Fold change /veh DDX43 (11728927_at) / RFU KRT8 (11758188_x_at) / Fold change /veh KRT8 (11758188_x_at) / RFU NKD1 (11759106_at) / Fold change /veh NKD1 (11759106_at) / RFU SRD5A1 (11742802_a_at) / Fold change /veh SRD5A1 (11742802_a_at) / RFU TPSAB1 /// TPSB2 (11721975_s_at) / Fold change /veh TPSAB1 /// TPSB2 (11721975_s_at) / RFU GSTM3 (11746129_a_at) / Fold change /veh GSTM3 (11746129_a_at) / RFU IL23R (11737362_x_at) / Fold change /veh IL23R (11737362_x_at) / RFU TMEM51 (11727254_a_at) / Fold change /veh TMEM51 (11727254_a_at) / RFU PIWIL2 (11732686_x_at) / Fold change /veh PIWIL2 (11732686_x_at) / RFU ORM1 (11744905_x_at) / Fold change /veh ORM1 (11744905_x_at) / RFU CCDC152 (11743942_at) / Fold change /veh CCDC152 (11743942_at) / RFU ECM1 (11717891_a_at) / Fold change /veh ECM1 (11717891_a_at) / RFU IL23R (11748794_a_at) / Fold change /veh IL23R (11748794_a_at) / RFU TNFAIP8L3 (11732012_x_at) / Fold change /veh TNFAIP8L3 (11732012_x_at) / RFU MBOAT4 (11741988_at) / Fold change /veh MBOAT4 (11741988_at) / RFU 11764193_at / Fold change /veh 11764193_at / RFU TMEM53 (11763286_at) / Fold change /veh TMEM53 (11763286_at) / RFU MAGEB2 (11727129_at) / Fold change /veh MAGEB2 (11727129_at) / RFU TMEM200A (11744735_a_at) / Fold change /veh TMEM200A (11744735_a_at) / RFU CCDC152 (11751479_a_at) / Fold change /veh CCDC152 (11751479_a_at) / RFU FAM211A (11726209_a_at) / Fold change /veh FAM211A (11726209_a_at) / RFU RGS16 (11746705_a_at) / Fold change /veh RGS16 (11746705_a_at) / RFU VCAN (11755009_s_at) / Fold change /veh VCAN (11755009_s_at) / RFU RHOB (11743442_s_at) / Fold change /veh RHOB (11743442_s_at) / RFU RGS16 (11720943_a_at) / Fold change /veh RGS16 (11720943_a_at) / RFU RGS16 (11720944_at) / Fold change /veh RGS16 (11720944_at) / RFU, VPS4B / Fold change vs veh, VPS4B / RFU, CREB1 / Fold change vs veh, CREB1 / RFU, DNAJC13 / Fold change vs veh, DNAJC13 / RFU, GNAQ / Fold change vs veh, GNAQ / RFU, CDK5R1 / Fold change vs veh, CDK5R1 / RFU, ZRANB3 / Fold change vs veh, ZRANB3 / RFU, CUL4A / Fold change vs veh, CUL4A / RFU, CCNY / Fold change vs veh, CCNY / RFU, UFL1 / Fold change vs veh, UFL1 / RFU, COG3 / Fold change vs veh, COG3 / RFU, DIAPH2 / Fold change vs veh, DIAPH2 / RFU, SKA2 / Fold change vs veh, SKA2 / RFU, AFF3 / Fold change vs veh, AFF3 / RFU, LMF1 / Fold change vs veh, LMF1 / RFU, IPO11 / Fold change vs veh, IPO11 / RFU, DFFB / Fold change vs veh, DFFB / RFU, FOXP1 / Fold change vs veh, FOXP1 / RFU, CARD8 / Fold change vs veh, CARD8 / RFU, STRN3 / Fold change vs veh, STRN3 / RFU, ADK / Fold change vs veh, ADK / RFU, RASSF2 / Fold change vs veh, RASSF2 / RFU, WIPF1 / Fold change vs veh, WIPF1 / RFU, LARP1B / Fold change vs veh, LARP1B / RFU, RASA1 / Fold change vs veh, RASA1 / RFU, RB1 / Fold change vs veh, RB1 / RFU, PPFIA1 / Fold change vs veh, PPFIA1 / RFU, MAT2A / Fold change vs veh, MAT2A / RFU, CCT5 / Fold change vs veh, CCT5 / RFU, WDR92 / Fold change vs veh, WDR92 / RFU, CUX1 / Fold change vs veh, CUX1 / RFU, TTC7A / Fold change vs veh, TTC7A / RFU, TMEM135 / Fold change vs veh, TMEM135 / RFU, DEPTOR / Fold change vs veh, DEPTOR / RFU, CPM / Fold change vs veh, CPM / RFU, DNAJB6 / Fold change vs veh, DNAJB6 / RFU, CACNA2D3 / Fold change vs veh, CACNA2D3 / RFU, DTX4 / Fold change vs veh, DTX4 / RFU, TFCP2 / Fold change vs veh, TFCP2 / RFU, GMCL1 /// GMCL1P1 / Fold change vs veh, GMCL1 /// GMCL1P1 / RFU, AEBP2 / Fold change vs veh, AEBP2 / RFU, SNHG1 /// SNORD22 /// SNORD25 /// SNORD26 /// SNORD27 /// SNORD28 /// SNORD29 /// SNORD31 / Fold change vs veh, SNHG1 /// SNORD22 /// SNORD25 /// SNORD26 /// SNORD27 /// SNORD28 /// SNORD29 /// SNORD31 / Fold change (Aza/veh), C12orf56 (ProbeSet 11735607_a_at) / Fold change (ACY-1035/veh), C12orf56 (ProbeSet 11735607_a_at) / Fold change (Aza/veh), FGFR1OP (ProbeSet 11751329_s_at) / Fold change (ACY-1035/veh), FGFR1OP (ProbeSet 11751329_s_at) / Fold change (Aza/veh), VPS36 (ProbeSet 11739960_a_at) / Fold change (ACY-1035/veh), VPS36 (ProbeSet 11739960_a_at) / RFU SYPL1 (11715823_x_at) / Fold change /veh SYPL1 (11715823_x_at) / RFU IGFBP7 (11715501_s_at) / Fold change /veh IGFBP7 (11715501_s_at) / RFU REEP3 (11722064_at) / Fold change /veh REEP3 (11722064_at) / RFU IGLL1 (11728026_x_at) / Fold change /veh IGLL1 (11728026_x_at): dose or concentration left out as unconfirmed
Conditions: MV-4-11 cells, 48 hours

Question: How did the “RFU TMCC2 (11721928_a_at)” value turn out when `Nc1ncn([C@@H]2O[C@H](CO)[C@@H](O)[C@H]2O)c(=O)n1` [azacitidine] was run?
Answer: The value was 12.72 RFU.
